The record followed here is ChEMBL document CHEMBL1123130 (J Med Chem, 1985).

In this assay the target is T1, Progesterone receptor (Oryctolagus cuniculus, UniProt P06186).
T1 sequence (P06186 whole entry): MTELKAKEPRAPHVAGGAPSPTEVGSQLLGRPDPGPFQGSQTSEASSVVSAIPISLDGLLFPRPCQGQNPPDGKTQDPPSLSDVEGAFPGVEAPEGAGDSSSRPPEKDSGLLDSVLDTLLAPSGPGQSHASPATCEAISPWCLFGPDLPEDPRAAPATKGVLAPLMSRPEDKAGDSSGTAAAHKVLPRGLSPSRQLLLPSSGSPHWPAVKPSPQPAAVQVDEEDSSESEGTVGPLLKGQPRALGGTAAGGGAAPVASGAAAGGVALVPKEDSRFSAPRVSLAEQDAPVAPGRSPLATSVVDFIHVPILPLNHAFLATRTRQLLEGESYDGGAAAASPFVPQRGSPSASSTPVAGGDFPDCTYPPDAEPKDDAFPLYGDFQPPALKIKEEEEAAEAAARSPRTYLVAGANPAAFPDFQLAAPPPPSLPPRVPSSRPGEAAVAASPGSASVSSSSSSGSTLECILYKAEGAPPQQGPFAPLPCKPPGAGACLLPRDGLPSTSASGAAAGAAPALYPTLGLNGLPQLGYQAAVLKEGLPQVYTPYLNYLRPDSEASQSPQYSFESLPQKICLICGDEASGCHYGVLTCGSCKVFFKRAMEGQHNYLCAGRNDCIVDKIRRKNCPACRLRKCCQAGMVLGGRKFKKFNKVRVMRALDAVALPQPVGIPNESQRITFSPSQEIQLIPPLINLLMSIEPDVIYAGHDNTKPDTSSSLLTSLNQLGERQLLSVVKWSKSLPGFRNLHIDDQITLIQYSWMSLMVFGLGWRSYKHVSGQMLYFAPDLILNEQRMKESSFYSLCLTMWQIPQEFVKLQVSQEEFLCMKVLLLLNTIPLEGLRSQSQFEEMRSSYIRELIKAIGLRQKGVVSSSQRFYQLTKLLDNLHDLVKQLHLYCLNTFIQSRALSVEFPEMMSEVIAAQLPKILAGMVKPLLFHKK
As to the kind of experiment: Inhibition of [3H]R5020 binding to rabbit uterine progesterone receptor.

`CC12CCC3C4CCC(=O)C=C4CCC3C1CCC2(O)/C=C\I` (centres undefined) registered a Ki of 0.00426 µM. As for `C=C(I)C1(O)CCC2C3CCC4=CC(=O)CCC4C3CCC21C` (centres undefined), the affinity corresponds to a Ki of 0.0801 µM. In the case of `CC12CCC3C4CCC(=O)C=C4CCC3C1CCC2(O)/C=C/I` (centres undefined) it was 0.00181 µM; in that of `CC12CCC3C4CCC(=O)C=C4CCC3C1C[C@@H](I)C2O` (some centres undefined), 0.0398 µM.

The term Ki denotes a measure of affinity in units of concentration, obtained from inhibition or displacement. A higher Ki goes with a looser hold on the target.
